Source: patent publication US5880314A, “Hydrochalcone derivatives, cosmetic compositions containing said derivatives and methods of producing the same” (priority 1995, dated 1999)

Assays:
[1] = tested on: B16 melanoma cells; assay: Melanoma cell depigmenting test (melanin production); type: cell-based; conditions: 5 days, control as 100%; for activity at 0.01 µg/mL / activity at 0.03 µg/mL / activity at 0.3 µg/mL: Mus musculus, B16, 120 h
Description: (Melanoma Cell Depigmenting Test)
Effect of compounds in suppressing melanin pigment synthesis was tested by measuring change in color of B16 melanoma cells when the cells were cultured at a concentration which had no adverse effect on growth of the cells. B16 Melanoma cells (1×10^5) were inoculated on 60 mm petri dishes. After 24 hours, 1,3-bis(2,4-dihydroxyphenyl)propane synthesized in Production Example 3, 1,3-bis(2,4-diacetoxyphenyl)propane synthesized in Production Example 4 and 1,3-bis(2,4-didodecanoyloxyphenyl)propane were added to the each medium, and incubation was curried out for 5 days. After incubation, the cells recovered by trypsin treatment were suspended in 0.3 ml of phosphate buffer and subjected to ultrasonic treatment for cell disruption, 0.3 ml of 4N NaOH was added to the treated suspension and the resultant suspension was incubated at 60° C. for 2 hours. Absorbance was measured at 400 nm and the amount of released melanin was calculated by setting the control as 100%. In Comparative Examples, similar tests were carried out using dihydrophloretin, a hydrochalcone compound, in place of the compounds of the present invention.

[2] = tested on: skin; conditions: combined in cosmetics; cited from earlier work
[3] = tested on: synthesis of melanin; conditions: reported in the literature; cited from earlier work

Row | Compound | activity at 0.01 µg/mL ([1]; 0.01 μg/ml) | activity at 0.03 µg/mL ([1]; 0.03 μg/ml) | activity at 0.3 µg/mL ([1]; 0.30 μg/ml) | effect in suppressing the synthesis of melanin [3] | further results
1 | Oc1ccc(CCCc2ccc(O)cc2O)c(O)c1 [1,3-bis(2,4-dihydroxyphenyl)propane] | 31% | 10% | 7% |  | 
2 | CC(=O)Oc1ccc(CCCc2ccc(OC(C)=O)cc2OC(C)=O)c(OC(C)=O)c1 [1,3-bis(2,4-diacetoxyphenyl)propane] | 44% | 18% | 11% |  | 
3 | Oc1ccc(OCc2ccccc2)cc1 [hydroquinone monobenzyl ether] |  |  |  |  | lightening of skin darkened with deposited pigment [2]: effectively lightened; side effects [2]: side effects such as skin allergies and irritation
4 | CCCCCCCCCCCC(=O)Oc1ccc(CCCc2ccc(OC(=O)CCCCCCCCCCC)cc2OC(=O)CCCCCCCCCCC)c(OC(=O)CCCCCCCCCCC)c1 [1,3-bis(2,4-didodecanoyloxyphenyl)propane] | 28% | 9% | 7% |  | 
5 | phlorezin |  |  |  | have an effect in suppressing the synthesis of melanin | 
6 | phlorine |  |  |  | have an effect in suppressing the synthesis of melanin | 
7 | dihydrophloretin |  |  |  | have an effect in suppressing the synthesis of melanin | Melanin production (%) ([1]; 0.01 μg/ml): 92%; Melanin production (%) ([1]; 0.03 μg/ml): 80%; Melanin production (%) ([1]; 0.30 μg/ml): 65%
8 | O=C(CCc1ccc(O)cc1)c1c(O)cc(O)cc1O[C@@H]1O[C@H](CO)[C@@H](O)[C@H](O)[C@H]1O [phlorizin] |  |  |  | have an effect in suppressing the synthesis of melanin | 
